According to PMC12021657, “Rapid traversal of vast chemical space using machine learning-guided docking screens” (Nature Computational Science, 2025):

Experiments:
[1] = molecular target: T1, Human D2R (Homo sapiens, UniProt P14416); test: Human D2R functional cAMP assay (HTRF, CHO-D2 #S20 cells, forskolin); type: cell-based
T1 construct: expressed in transfected cells
Experimental: Human D2R activity was measured by determining the amount of cAMP produced. Human D2R functional experiments were carried out in a CHO-D2 #S20 cell line. Five-thousand cells were seeded in 30 μl of Optimem (Invitrogen 11058) + 500 μM IBMX (Sigma 17018) on a 96-well black-and-white isoplate (PerkinElmer 6005030). Test compounds and dopamine were added in their corresponding wells and incubated for 10 min at 37 °C with gentle stirring (150 r.p.m.). Then, 10 µM forskolin (Sigma 17018) was added and incubated for 5 min at 37 °C with gentle stirring (150 r.p.m.). Reagents from the kit (#CISBIO 62AM4PEC) were added and incubated for 1 h at room temperature with gentle stirring (90 r.p.m.) and protected from light. HTRF (excitation wavelength: 320 nm; emission wavelengths: 620–665 nm) from each well was measured using a Tecan Infinite M1000 Pro. Two independent experiments were carried out to calculate EC50 and Emax values.

[2] = molecular target: T1, Human D2R; test: Human D2R competition radioligand binding ([3H]-spiperone, CHO-D2R #S20 membranes)
Experimental: Screening compounds (Supplementary Tables 10 and 12) were purchased from Enamine (compound purity >90%, which was confirmed by liquid chromatography−mass spectrometry and ^1H NMR spectroscopy for identified ligands; Supplementary Figs. 19–30). Human D2R competition binding experiments were carried out in polypropylene 96-well plates. Each well contained 20 µg of membranes from a CHO-D2R #S20 cell line (protein concentration of 4,322 µg ml^−1), 1.5 nM [^3H]-spiperone (54.3 Ci mmol^−1, 1 mCi ml^−1, PerkinElmer NET1187250UC) and the compound studied. Non-specific binding was determined in the presence of 10 µM sulpiride (Sigma Aldrich S8010). The reaction mixture (250 µl per well) was incubated at 25 °C for 120 min, after which 200 µl was transferred to a GF/C 96-well plate (Millipore) pretreated with 0.5% PEI and treated with binding buffer (50 mM Tris-HCl, 1 mM EDTA, 5 mM MgCl2, 5 mM KCl, 120 mM NaCl, pH 7.4). The reaction mixture was filtered and washed 4 times with 250 µl wash buffer (50 mM Tris-HCl, 0.9% NaCl, pH 7.4) before the addition of 30 μl Universol. The final measurement was performed in a microplate beta scintillation counter (Microbeta Trilux, PerkinElmer). Human A2AR competition binding experiments were carried out in a multiscreen GF/C 96-well plate (Millipore) pretreated with binding buffer (Tris-HCl 50 mM, EDTA 1 mM, MgCl2 10 mM, 2 U ml^−1 adenosine deaminase, pH 7.4). Each well was incubated with 5 μg of membranes from the HeLa-A2A cell line and prepared in our laboratory (lot A003/14-04-2019, protein concentration 2,058 μg ml^−1), 1 nM [^3H]-ZM241385 (50 Ci mmol^−1, 1 mCi ml^−1, ARC-ITISA 0884), and the compounds studied and standards. Non-specific binding was determined in the presence of NECA 50 μM (Sigma E2387). The reaction mixture (total volume of 200 μl per well) was incubated at 25 °C for 30 min, then filtered and washed 4 times with 250 μl wash buffer (Tris-HCl 50 mM, EDTA 1 mM, MgCl2 10 mM, pH 7.4), and measured in a microplate beta scintillation counter (Microbeta Trilux, PerkinElmer). Unless stated otherwise, three independent experiments were carried out to calculate Ki values.

T1 sequence (P14416 whole entry): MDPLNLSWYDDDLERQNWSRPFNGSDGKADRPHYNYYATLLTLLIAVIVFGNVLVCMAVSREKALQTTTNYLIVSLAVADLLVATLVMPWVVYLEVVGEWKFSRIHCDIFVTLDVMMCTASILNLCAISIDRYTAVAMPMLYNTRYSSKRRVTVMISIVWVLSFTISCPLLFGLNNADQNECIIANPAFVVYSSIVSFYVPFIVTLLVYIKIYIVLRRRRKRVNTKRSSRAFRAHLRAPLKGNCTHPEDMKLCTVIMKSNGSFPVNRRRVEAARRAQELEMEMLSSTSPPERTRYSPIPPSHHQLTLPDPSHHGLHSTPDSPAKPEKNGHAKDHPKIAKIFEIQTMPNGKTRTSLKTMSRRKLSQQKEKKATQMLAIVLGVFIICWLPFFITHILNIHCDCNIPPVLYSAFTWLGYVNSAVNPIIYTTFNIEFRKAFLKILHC

SMILES: Cc1cnccc1CCN1CCC(Oc2ccccc2Cl)C1 (stereo not drawn) [Compound 2, Cc1cnccc1CCN2CCC(C2)Oc3ccccc3Cl]
- EC50 [1]: 14 µM
- functional character at D2R ([1]; cAMP assay): full agonists
- Emax ([1]; read-out: Emax (maximal effect)): 100%
- D2R radioligand displacement at 10 µM (%) ([2]; 10 µM compound, mean ± SEM of two technical replicates, listed as Z2436421891): 56 ± 2%
- inhibition at 10 µM ([2]; 2 h, 10 µM compound, mean ± SEM of two technical replicates, read-out: D2R radioligand displacement at 10 µM (%)): 56 ± 2%
- Ki ([2]; mean ± SEM from three independent experiments): 3.8 µM
